Test results as given in PMC8940841, “A metabolically stable PET tracer for imaging synaptic vesicle protein 2A: synthesis and preclinical characterization of [^18F]SDM-16” (European Journal of Nuclear Medicine and Molecular Imaging, 2021).
Like-named read-outs stand apart in the source and are kept apart here.

Assays:
human SV2A [1] = target: T1, human SV2A (Homo sapiens, UniProt Q7L0J3); parameters: Duplicate samples of human frontal cortex gray matter were homogenized in PBS buffer; from tissue; host or cells: human frontal cortex gray matter homogenate; conditions: other SV2A ligands; read-out: Ki; cited from earlier work
T1 sequence (Q7L0J3 whole entry): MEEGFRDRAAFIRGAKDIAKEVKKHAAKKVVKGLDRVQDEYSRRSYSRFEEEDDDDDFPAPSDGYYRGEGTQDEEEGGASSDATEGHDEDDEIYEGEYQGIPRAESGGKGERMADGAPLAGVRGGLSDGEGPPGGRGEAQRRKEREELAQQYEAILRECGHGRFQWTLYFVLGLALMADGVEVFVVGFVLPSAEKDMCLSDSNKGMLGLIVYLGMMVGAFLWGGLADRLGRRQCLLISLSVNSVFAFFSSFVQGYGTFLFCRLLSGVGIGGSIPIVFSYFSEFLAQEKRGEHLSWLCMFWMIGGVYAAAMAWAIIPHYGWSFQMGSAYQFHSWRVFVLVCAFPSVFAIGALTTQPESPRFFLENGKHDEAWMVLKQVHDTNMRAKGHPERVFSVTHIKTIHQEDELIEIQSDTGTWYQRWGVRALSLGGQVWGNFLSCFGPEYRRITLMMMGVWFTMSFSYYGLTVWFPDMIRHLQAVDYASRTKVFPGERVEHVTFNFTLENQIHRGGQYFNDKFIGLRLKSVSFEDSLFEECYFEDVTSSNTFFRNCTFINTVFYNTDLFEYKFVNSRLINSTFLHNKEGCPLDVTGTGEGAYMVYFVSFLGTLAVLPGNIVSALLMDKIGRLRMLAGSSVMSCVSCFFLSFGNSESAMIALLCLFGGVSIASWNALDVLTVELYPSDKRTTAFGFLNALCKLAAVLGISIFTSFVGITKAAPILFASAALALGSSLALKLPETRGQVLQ

human SV2A [2] = target: T1, human SV2A; test: biochemical
Protocol: Competition binding assays were performed twice independently using separate assay materials, with 4 technical replicates from each independent assay. […] Duplicate samples of human frontal cortex gray matter were homogenized in PBS buffer (10 mg/mL) for storage at − 80 °C and were diluted to a stock concentration of 4 mg/mL in PBS on the day of the assays. […] Working stocks of brain homogenate (100 µL; final concentration of 2 mg/mL), blocking ligands (20 µL), and radioligand (80 µL; final concentration 2.5 nM) were combined in quadruplicate wells of 96-well plates, sealed, and incubated at room temperature for 90 min on an orbital shaker set to 250 RPM. Reaction plates were filtered, rapidly washed with cold PBS, and dried. Forty microliters of Microscint-20 scintillation cocktail (Perkin-Elmer) was added to each well, and the plate was counted using a Microbeta2 plate reader (Perkin-Elmer). GraphPad Prism was used for curve fitting using the one-site Ki model.

[3] = Adverse event observation during PET imaging; type: in vivo, rhesus monkeys; conditions: tracer at microdose 0.646–0.926 µg; LEV i.v. 30 mg/kg
Protocol: Four monkeys were studied.
Adverse event was also not observed following LEV (i.v., 30 mg/kg) administration, including the displacement and blocking scan.

[4] = Measurement of lipophilicity (octanol / PBS pH 7.4); type: physicochemical; conditions: for logP: octanol/PBS pH 7.4
Protocol: The logP of [^18F]SDM-16 was determined by a method modified from previously published procedures. Briefly, an aliquot of […] (10 µCi) of the radioligand was added to a 2-mL microtube containing 0.8 mL of octanol and 0.8 mL of 1 × phosphate buffered saline (1 × PBS, pH 7.4). The mixture was vortexed for 30 s and then centrifuged at 2000 g for 2 min. A subsample of the octanol (0.1 mL) and 1 × PBS (0.5 mL) layers was evaluated with a gamma counter. The major portion of the octanol layer (0.5 mL) was diluted with another 0.3 mL of octanol, mixed with a fresh portion of 0.8 mL of PBS, vortexed, centrifuged, and analyzed as described above. This process was repeated until consistent log P values were obtained, with five consecutive equilibration procedures being performed for each logP measurement. Four separate measurements were performed for [^18F]SDM-16 on different days.

[5] = Plasma free fraction (fp) by ultrafiltration; type: in vitro ADME, rhesus monkey; conditions: monkey, plasma (separated from spiked whole blood)
Protocol: The unbound fraction of [^18F]SDM-16 in plasma (fp) of rhesus monkey was measured in triplicate using the ultrafiltration method. Briefly, [^18F]SDM-16 solution was added to 3 mL of whole blood. After incubation at ambient temperature for 5 min, the blood sample was centrifuged at 3900 rpm for 5 min. A sample of the supernatant plasma (0.3 mL) was loaded onto the reservoir of a Centrifree® Ultrafiltration device (Merck Millipore Ltd. Tullagreen, Carrigtwohill, Co. Cork, IRELAND) in triplicate and centrifuged at 1228 g for 20 min. The fp value was calculated as the ratio of radioactivity in the filtrate to that in the plasma.

[6] = Plasma radiometabolite analysis during PET scans; type: in vivo, rhesus monkeys; conditions: 30 min p.i.
Protocol: Arterial blood samples were collected during the PET scans to measure the radioactivity in plasma for generation of the metabolite-corrected arterial plasma input function. Plasma radiometabolite analysis was performed using the column-switching method, following a published protocol. Briefly, arterial blood samples were collected at 3-, 8-, 15-, 30-, 60-, 90-, 120-, and 180-min post-injection (p. i.), treated with urea (8 M), filtered, and injected onto a self-packed short column (4.6 × 19 mm) eluting with 1% MeCN in water at a flow rate of 2 mL/min. The sample was then back flushed onto a Gemini-NX column (5 μm, 4.6 mm × 250 mm) eluting with 40% MeCN/60% 0.1 M ammonium formate (pH 6.4) at a flow rate of 1.2 mL/min. The eluent was fraction-collected using an automated spectrum chromatography CF-1 fraction collector. Activity in the whole blood, plasma, filtrated plasma-urea mix, filters, and HPLC fractions were counted with automatic gamma well-counter (Wizard 2, PerkinElmer). The sample recovery rate, extraction efficiency, and HPLC fraction recovery were monitored. The unmetabolized [^18F]SDM-16 parent fraction was determined as the ratio of the sum of radioactivity in fractions containing the parent compound to the total amount of radioactivity collected and fitted with inverted Gamma4 approaches.
[^18F]SDM-16 had higher metabolite-corrected plasma SUV than the other SV2A radiotracers, indicating slower plasma clearance and higher metabolic stability (Fig. 2a). Whole-blood and plasma-input functions were highly consistent between the two animals, with a stable plasma to whole-blood ratio of 0.93 ± 0.13 over the entire 180-min acquisition period (Fig. S1).

SV2A [7] = conditions: 1TC, cited from earlier work
SV2A [8] = target: SV2A (Macaca mulatta, UniProt H9EQH8); conditions: previously determined; cited from earlier work
Sequence of SV2A (Macaca mulatta, UniProt H9EQH8) (H9EQH8 1-742): as the sequence (Q7L0J3 whole entry) above, with G64S, I572V counted along it

[9] = Brain PET imaging with 1TC kinetic modeling; conditions: rhesus monkey, brain tissue, intravenous
Protocol: (§1) A total of 10 PET imaging experiments with [^18F]SDM-16 were performed in rhesus monkeys (Macaca mulatta) according to a protocol approved by the Yale University Institutional Animal Care and Use Committee (IACUC). Four monkeys were studied. […] Body temperature was maintained by a water-jacket heating pad. The animal was attached to a physiological monitor, and vital signs (heart rate, blood pressure, respirations, SPO2, EKG, ETCO2, and body temperature) were continuously monitored. A venous line was inserted in one limb for administration of radiotracer, displacement, and blocking drugs. A catheter was placed in the femoral artery in the other limb for blood sampling. Dynamic PET brain scans were performed on a Focus 220 system (Siemens Medical Solutions, Knoxville, TN, USA) with a reconstructed image resolution of approximately 1.5 mm. After a 9-min transmission scan, the radioligand was injected i.v. over 3 min. by an infusion pump. Dynamic PET scans were performed for 3 h (baseline and blocking scans) or 4 h (displacement scan).
(§2) PET images were reconstructed with built-in corrections for attenuation, normalization, scatter, randoms, and deadtime. PET brain images were registered to the animal’s MR image, which was subsequently registered to a brain atlas to define the regions of interest. Dynamic images were reconstructed using a Fourier rebinning and filtered back projection algorithm. A rhesus monkey brain atlas was used for generation of regions of interest (ROIs) and time − activity curves (TACs) for the following ROIs: amygdala, brain stem, caudate nucleus, centrum semiovale (CS), cerebellum, cingulate cortex, frontal cortex, globus pallidus, hippocampus, insula, nucleus accumbens, occipital cortex, pons, putamen, substantia nigra, temporal cortex, and thalamus.
(§3) Volume of distribution (VT, mL·cm^−3) values and the first-order kinetic rate constants of tracer (K1) were derived through 1-tissue (1T) compartment kinetic modeling with the metabolite-corrected arterial plasma input function, which was calculated as the product of the fitted total plasma curve and the parent radiotracer fraction curve. Nondisplaceable volume of distribution (VND) and SV2A occupancy by LEV was calculated using the Lassen plot [32]. Nondisplaceable binding potential (BPND) values were calculated from VT values using CS as reference region, or the VND derived from the blocking study, i.e., BPND = (VT, ROI − VT, CS)/ VT, CS or BPND = (VT/VND) -1.

SV2A [10] = test: Brain PET imaging with 1TC kinetic modeling; conditions: for VT (baseline): 1TC
Protocol: as §1, §2, §3

[11] = Free base fraction in plasma by modified Henderson-Hasselbalch equation (Eq. 1); conditions: Eq. 1, plasma pH 7.4

## Cc1cnccc1CN1C[C@@H](c2cc(F)cc(F)c2)CC1=O [SynVesT-1]
Human SV2A [1]
  Ki: 3.1 nM

## Cc1nccn1CN1C[C@H](c2cc(F)cc(F)c2)CC1=O [(S)-SDM-16]
Human SV2A [2]; [^3H]UCB-J, human frontal cortex homogenate
  Ki: 25.5 nM

## Cc1nccn1CN1C[C@@H](c2cc(F)cc(F)c2)CC1=O [SDM-16]
Human SV2A [2]
  Ki: 0.9 nM
[3]
  adverse events: no adverse events were observed

## [11CH3]c1cnccc1CN1C[C@@H](c2cc(F)c(F)c(F)c2)CC1=O [[^11C]UCB-J]
[4]
  logP: 2.46
[5]
  fraction unbound at 5 min: 0.46
[6]
  parent fraction in plasma: 40 ± 6%
SV2A [7]; Amygdala
  VT (baseline): 24.4 ± 2.0 mL/cm^3
SV2A [7]; Brainstem
  VT (baseline): 23.5 ± 2.8 mL/cm^3
SV2A [7]; Caudate
  VT (baseline): 44.8 ± 4.6 mL/cm^3
SV2A [7]; Centrum semiovale
  VT (baseline): 13.6 ± 2.9 mL/cm^3
SV2A [7]; Cerebellum
  VT (baseline): 39.5 ± 5.8 mL/cm^3
SV2A [7]; Cingulate cortex
  VT (baseline): 55.6 ± 10.0 mL/cm^3
SV2A [7]; Frontal cortex
  VT (baseline): 55.4 ± 8.2 mL/cm^3
SV2A [7]; Globus pallidus
  VT (baseline): 27.9 ± 3.0 mL/cm^3
SV2A [7]; Hippocampus
  VT (baseline): 34.4 ± 2.8 mL/cm^3
SV2A [7]; Insular cortex
  VT (baseline): 54.6 ± 6.7 mL/cm^3
SV2A [7]; Nucleus accumbens
  VT (baseline): 53.9 ± 9.2 mL/cm^3
SV2A [7]; Occipital cortex
  VT (baseline): 52.9 ± 7.0 mL/cm^3
SV2A [7]; Putamen
  VT (baseline): 45.2 ± 3.0 mL/cm^3
SV2A [7]; Temporal cortex
  VT (baseline): 50.4 ± 6.9 mL/cm^3
SV2A [7]; Thalamus
  VT (baseline): 40.3 ± 6.4 mL/cm^3
SV2A [8]
  VND: 6.27 mL/cm^3
[9]
  fraction unbound: 0.073
SV2A [10]; Amygdala
  BPND, VND method: 2.77 ± 0.06
  BPND, VT(CS) method: 0.85 ± 0.34
  K1: 0.48 ± 0.14 mL/cm^3 per min
SV2A [10]; Anterior cingulate
  BPND, VND method: 6.84 ± 0.18
  BPND, VT(CS) method: 2.70 ± 0.74
  K1: 0.73 ± 0.20 mL/cm^3 per min
SV2A [10]; Brainstem
  BPND, VND method: 2.61 ± 0.44
  BPND, VT(CS) method: 0.76 ± 0.21
  K1: 0.89 ± 0.17 mL/cm^3 per min
SV2A [10]; Caudate
  BPND, VND method: 5.78 ± 0.43
  BPND, VT(CS) method: 2.40 ± 0.72
  K1: 0.75 ± 0.12 mL/cm^3 per min
SV2A [10]; Cerebellum
  BPND, VND method: 4.43 ± 0.83
  BPND, VT(CS) method: 1.95 ± 0.36
  K1: 0.81 ± 0.16 mL/cm^3 per min
SV2A [10]; Cingulate cortex
  BPND, VND method: 7.37 ± 1.18
  BPND, VT(CS) method: 3.17 ± 0.84
SV2A [10]; Frontal cortex
  BPND, VND method: 7.28 ± 1.00
  BPND, VT(CS) method: 3.17 ± 0.84
  K1: 0.66 ± 0.16 mL/cm^3 per min
SV2A [10]; Globus pallidus
  BPND, VND method: 3.31 ± 0.38
  BPND, VT(CS) method: 1.10 ± 0.28
  K1: 0.65 ± 0.11 mL/cm^3 per min
SV2A [10]; Guo plot of baseline VT
  in vivo Kd ratio, Kd(tracer)/Kd([^18F]SDM-16): 0.38
SV2A [10]; Hippocampus
  BPND, VND method: 4.47 ± 0.14
  BPND, VT(CS) method: 1.59 ± 0.39
  K1: 0.61 ± 0.12 mL/cm^3 per min
SV2A [10]; Insular cortex
  BPND, VND method: 7.24 ± 0.73
  BPND, VT(CS) method: 3.12 ± 0.81
  K1: 0.75 ± 0.17 mL/cm^3 per min
SV2A [10]; Mean ± SD over brain regions
  K1: 0.72 ± 0.17 mL/cm^3 per min
SV2A [10]; Nucleus accumbens
  BPND, VND method: 7.16 ± 1.13
  BPND, VT(CS) method: 3.12 ± 0.81
  K1: 0.77 ± 0.17 mL/cm^3 per min
SV2A [10]; Occipital cortex
  BPND, VND method: 7.01 ± 0.88
  BPND, VT(CS) method: 2.97 ± 0.65
  K1: 0.81 ± 0.21 mL/cm^3 per min
SV2A [10]; Putamen
  BPND, VND method: 6.00 ± 0.24
  BPND, VT(CS) method: 2.42 ± 0.63
  K1: 1.03 ± 0.19 mL/cm^3 per min
SV2A [10]; Temporal cortex
  BPND, VND method: 6.57 ± 0.89
  BPND, VT(CS) method: 2.79 ± 0.61
  K1: 0.66 ± 0.14 mL/cm^3 per min
SV2A [10]; Thalamus
  BPND, VND method: 5.21 ± 0.57
  BPND, VT(CS) method: 2.03 ± 0.62
  K1: 0.72 ± 0.24 mL/cm^3 per min

## [11CH3]n1cncc1CN1C[C@@H](c2cc(F)cc(F)c2)CC1=O [[^11C]UCB-A]
[4]; octanol / 1x PBS, pH 7.4
  logD: 1.1
[4]
  logP: 1.1
[5]
  fraction unbound at 5 min: 0.75
[6]
  parent fraction in plasma: 70 ± 7%
[11]
  fraction present in plasma as free base: 49%
SV2A [10]; Amygdala
  K1: 0.11 ± 0.01 mL/cm^3 per min
  VT (baseline): 15.6 ± 8.2 mL/cm^3
SV2A [10]; Anterior cingulate
  K1: 0.15 ± 0.03 mL/cm^3 per min
SV2A [10]; Brainstem
  K1: 0.15 ± 0.03 mL/cm^3 per min
  VT (baseline): 21.0 ± 4.9 mL/cm^3
SV2A [10]; Caudate
  K1: 0.13 ± 0.02 mL/cm^3 per min
SV2A [10]; Cerebellum
  K1: 0.17 ± 0.03 mL/cm^3 per min
SV2A [10]; Cingulate cortex
  K1: 0.17 ± 0.034 mL/cm^3 per min
SV2A [10]; Frontal cortex
  K1: 0.15 ± 0.03 mL/cm^3 per min
  VT (baseline): 49.0 ± 18.2 mL/cm^3
SV2A [10]; Globus pallidus
  K1: 0.10 ± 0.01 mL/cm^3 per min
SV2A [10]; Hippocampus
  K1: 0.12 ± 0.02 mL/cm^3 per min
  VT (baseline): 31.4 ± 16.6 mL/cm^3
SV2A [10]; Insular cortex
  K1: 0.15 ± 0.01 mL/cm^3 per min
  VT (baseline): 57.8 ± 26.9 mL/cm^3
SV2A [10]; Mean ± SD over brain regions
  K1: 0.14 ± 0.03 mL/cm^3 per min
SV2A [10]; Nucleus accumbens
  K1: 0.13 ± 0.02 mL/cm^3 per min
  VT (baseline): 34.1 ± 4.8 mL/cm^3
SV2A [10]; Occipital cortex
  K1: 0.19 ± 0.03 mL/cm^3 per min
  VT (baseline): 47.0 ± 16.6 mL/cm^3
SV2A [10]; Putamen
  K1: 0.17 ± 0.03 mL/cm^3 per min
SV2A [10]; Temporal cortex
  K1: 0.14 ± 0.02 mL/cm^3 per min
  VT (baseline): 51.4 ± 26.2 mL/cm^3
SV2A [10]; Thalamus
  K1: 0.14 ± 0.03 mL/cm^3 per min
SV2A [10]; baseline scan, end of scan, frontal cortex and putamen
  SUV (brain tracer uptake): about 4
